# In patent US6903135B2, “Methods and products related to 16-HETE analogs” (Board of Regents, The University of Texas System, priority 1998, dated 2005):
# Marks after values point to notes of the source that are not given here.
# Legend:
# Type in all cases: cell-based
# basal human neutrophils = test: Basal neutrophil adhesion to gelatin matrix
# Procedure: (§1) Venous blood (60-70 ml) was collected from four healthy, normal volunteers into syringes containing heparin (1 U/ml). Polymorphonuclear leukocytes (PMNs) were isolated by a histopaque density gradient technique as previously described in Liu et al., Adhesion, Its role in Inflammatory Disease, Freeman and Co., New York, 1992, pp 189-192. Briefly, blood aliquots (6 ml) were layered over two layers (3 ml) of histopaque 1077 and 1119 in a conical centrifuge tube. The sample was then subjected to centrifugation at 100×g for 30 minutes at room temperature and the top layer, containing the neutrophils, was carefully collected. Hypotonic lysis was used to separate out the red blood cells. The neutrophils were then isolated from the sample by centrifugation (2000×g) and suspended in Hanks balanced salt solution (HBSS) containing 1 mM Ca^+ and 0.8 mM Mg^+ for studies involving arachidonic acid metabolism, and in M199 (with 1% BSA) for neutrophil adhesion assays. Total cells were counted using a hemocytometer and leukocytes were counted after staining with Wright-Giemsa stain. For each experiment, the cell preparations used contain ≧97% neutrophils, having ≧95% viability as determined by a trypan blue exclusion assay.
# (§2) Isolated neutrophils were resuspended in M199 containing 1% BSA with a final concentration of 3×10^6 cells per ml. Cells suspensions (1 ml) were incubated with or without a test compound, 16(S)-HETE, 16(R)-HETE, or 20-HETE (concentrations 0.01 to 10 μM) for 10 min and then placed into gelatin-coated wells and further incubated for 20 min at 37° C. The wells were washed three times with 0.5 ml of solution M199 to remove non-adherent cells. The adherent cells were then removed by addition of 0.4 ml of 0.25% trypsin-EDTA in 0.1 M PBS to the gelatin-coated wells and incubation for 10 min at 37° C. The incubates were transferred and the wells were washed with 0.1 ml of M199 solution. The amount of cells in combined solutions was counted. In some experiments, the adhesion of neutrophils was stimulated by addition of 1 U/ml of thrombin to neutrophil suspension immediately prior to the transfer of cells to the wells. Experiments were performed in duplicates for each concentration of HETE. The inhibition of adhesion was expressed as percent of cells remaining in suspension (non-adherent) relative to control. The range of adherent PMNs in control incubations was 6 to 23%. This was increased two-fold in the presence of thrombin.
# [1] = system: thrombin-stimulated human neutrophils; test: Thrombin-stimulated neutrophil adhesion to gelatin matrix
# Procedure: as §1
# as §2, with “In some experiments, the adhesion of neutrophils was stimulated by addition of 1 U/ml of thrombin to neutrophil suspension immediately prior to the transfer of cells to the wells. Experiments were performed in duplicates for each concentration of HETE.” left out, “The range of adherent PMNs in control incubations was 6 to 23%. This was increased two-fold in the presence of thrombin.” left out
# [2] = system: neutrophils in diluted human blood; test: fMLP-induced neutrophil aggregation in diluted human blood; details: for Aggregation (percent of inhibition from HETE untreated cells): 1 µM compound, N = 4; for inhibition of neutrophil aggregation: no concentration given
# Procedure: (§3) Stimulated neutrophil aggregation and oxygen free radical release were examined in whole human blood using a whole-blood aggregometer-chemiluminometer (Chronolog, Haverton, Pa.) as described in Bednar et al. J. Thromb. Thrombol. 1, 179-185 (1995). Briefly, blood samples containing heparin (1 U/ml) as the anticoagulant were diluted in HBSS in proportion 1 to 9. Diluted blood aliquots (1 ml) were stirred (400 rpm) in a prewarmed (37° C.) siliconized cuvette containing cytochalasin b (5 μg/ml) and luminol (in 8 μl DMSO, 500 μM final concentration) and the test HETE (concentration 0.01 to 10 μM) for 10 min. Neutrophils were stimulated with a submaximal dose of fMLP (5×10^−7M final concentration). The aggregation and chemiluminescence were simultaneously measured as changes of impedance and luminescence, respectively. The fMLP-induced chemiluminescence was calculated as the peak height of the reaction.
# The methods were performed as described above in Example 3.
# [3] = system: neutrophils in diluted human blood; test: fMLP-stimulated oxygen free radical release (luminol chemiluminescence) in diluted human blood; details: for OFR Release (percent of inhibition from HETE untreated cells): 1 mM [sic] HETE, fMLP 5×10^−7 M, chemiluminescence, N = 3 to 4
# Procedure: as §3, with “Diluted blood aliquots (1 ml) were stirred (400 rpm) in a prewarmed (37° C.) siliconized cuvette containing cytochalasin b (5 μg/ml) and luminol (in 8 μl DMSO, 500 μM final concentration) and the test HETE (concentration 0.01 to 10 μM) for 10 min.” left out
# [4] = system: LTB4 synthesis in neutrophils; test: Neutrophil LTB4 production stimulated by fMLP; details: 1 μM, 10 min preincubation, fMLP 5×10^−7 M; fMLP alone 92.8±27.1, unstimulated 49.9±24.2; n=4
# Procedure: 16(R)-HETE (0.01-1.0 μM) was preincubated for 10 minutes with the neutrophil suspension (3×10^6/ml) prior to the addition of formyl-methionyl-leucyl-phenylalanine (fMLP). Samples were then incubated for an additional 10 minutes with 5×10^−7M fMLP. All incubations took place at 37° C. Plasma samples for the measurement of LTB4 were collected by centrifugation of the whole blood samples at 1200 rpm for 15 minutes. Samples were stored at […] until analyzed. The plasma was then acidified to pH3 with 1M Hcl. The plasma was then placed on C2 reverse phase columns (Amprep for Amersham Corp., Arlington Heights, Ill.) to extract LTB4. LTB4 was then measured using the Biotrak LTB4 enzyme immunoassay system (Amersham Corp., Arlington Heights, Ill.). All standards and samples were performed in duplicate. Following incubation, all samples were read at 450 nm and the LTB4 concentration in each sample was determined following the generation of a standard curve. LTB4 concentration was expressed as picograms LTB4 per 1000 neutrophils.
# platelets [5] = test: ADP-induced platelet aggregation in diluted whole blood; details: 1 μM, ten minute incubation, ADP 5 μM, n=3, mean±sem
# Source text: (§4) Platelet aggregation was examined in diluted whole blood using a Chronolog whole blood aggregometer (Havertown, Pa.) as previously described (Bednar, M. M.; Dooley, R. H.; Zamani, M.; Howard, D. B.; and Gross, C. E. Neutrophil and platelet activity and quantification following delayed t-PA therapy in a rabbit model of thromboembolic stroke. J. Thromb. Thrombol. 1:179-185 (1995). Briefly, whole blood was collected in 3.8% sodium citrate (9:1, v/v) and was subsequently diluted 50:50 with normal saline. Aggregation was assessed over a 6 minute interval following addition of a submaximal concentration of adenosine diphosphate (ADP, 5 μM: Sigma Corporation, St. Louis, Mo.). Aggregation was then repeated following a ten minute incubation with either 1 μM or 16(R)-HETE or 16(S)-HETE and expressed as the change in impedance as a percentage of the baseline value. Adenosine triphosphate (ATP) release was simultaneously measured from ADP-stimulated platelets in the Chronolog whole blood aggregometer using the Chrono-Lume luminescent agent (firefly luciferin-luciferase). Samples were compared to chemiluminescence obtained from ATP standards following the addition of luciferin-luciferase.
# platelets [6] = test: ATP release from ADP-stimulated platelets; details: 1 μM, ADP 5 μM, n=3, mean±sem
# Source text: as §4
# [7] = system: neutrophils in diluted human blood; test: fMLP-induced neutrophil aggregation in diluted human blood; details: 1 mM [sic] HETE, fMLP 5×10^−7 M, N = 3 to 4
# human neutrophils = test: Agonist activity on human neutrophils; details: concentrations ≦20 μM
# [8] = concentrations of one micromolar, four observations per compound
molecule,measurement,setting,value
"CCCC[C@@H](O)C=CCC=CCC=CCC=CCCCC(=O)O [16(R)-HETE, 16(R)-hydroxy-5,8,11,14-eicosatetraenoic acid]",inhibition at 1 µM,"basal human neutrophils; Homo sapiens, Neutrophil, 1 μM, 10 min preincubation, unstimulated neutrophils, gelatin matrix",73 ± 11%
same,inhibition of neutrophil adhesion to gelatin,basal human neutrophils; preincubation with 10 μM,completely inhibited
same,inhibition at 1 µM,"[1]; Homo sapiens, Neutrophil, 1 μM, thrombin 1 U/ml, 3×10^6 cells/ml",50 ± 4%
same,Aggregation (percent of inhibition from HETE untreated cells),[2],42.0 ± 11.0%
same,IC50,"[2]; Homo sapiens, Neutrophil, fMLP 5×10^−7 M, read-out: IC50, inhibition of fMLP-induced neutrophil aggregation",1.2 µM
same,inhibition of fMLP-induced neutrophil aggregation,[2]; [8],inhibited
same,OFR Release (percent of inhibition from HETE untreated cells),[3],8.9 ± 5.1%
same,LTB4 synthesis,[4],17.0±3.2 pg/1000 neutrophils
same,"ADP-induced platelet aggregation, % of the control value",platelets [5],85.9±21.4%
same,"ATP release from ADP-stimulated platelets, % of the control sample",platelets [6],99.3±0.7%
same,Aggregation (percent of inhibition from HETE untreated cells),[7],42.0 ± 11.0%
"CCCCC(O)/C=C\C/C=C\C/C=C\C/C=C\CCCC(=O)NS(C)(=O)=O [16(R)-HETE sulfonimide, N-methylsulfonyl-16-hydroxyeicosa-5,8,11,14-(Z)-tetraenamide]",Aggregation (percent of inhibition from HETE untreated cells),[2],47.6 +/− 20.5* percent
same,inhibition of fMLP-induced neutrophil aggregation,[2]; [8],slightly lower activity than 16-HETE (R)
CCCC[C@H](O)/C=C\C/C=C\C/C=C\C/C=C\CCCC(=O)O [16(S)-HETE],inhibition of basal neutrophil adhesion,"basal human neutrophils; 1 μM, 10 min preincubation, unstimulated neutrophils, gelatin matrix",39±8%
same,inhibition of thrombin-stimulated neutrophil adhesion,"[1]; 1 μM, thrombin 1 U/ml, 3×10^6 cells/ml",40±14%
same,inhibition of fMLP-induced neutrophil aggregation,[2]; concentrations of ≦10 μM,not active
same,OFR Release (percent of inhibition from HETE untreated cells),[3],5.6 ± 16.7%
same,"ADP-induced platelet aggregation, % of the control value",platelets [5],101.3±14.0%
same,"ATP release from ADP-stimulated platelets, % of the control sample",platelets [6],108.0±6.8%
same,Aggregation (percent of inhibition from HETE untreated cells),[7],7.0 ± 3.5%
"CCCC[C@@H](O)/C=C\CCCCCCC/C=C\CCCC(=O)O [8,9,11,12-tetrahydro-16(R)-HETE]",Aggregation (percent of inhibition from HETE untreated cells),[2],71.1 +/− 10.3* percent
O=C(O)CCC/C=C\C/C=C\C/C=C\C/C=C\CCCCCO [20-HETE],activity in assay of neutrophil adhesion,basal human neutrophils; concentrations up to 1 μM,no activity
same,"inhibition of neutrophil adhesion, basal conditions",basal human neutrophils; concentrations ≦10 μM,did not inhibit
same,"inhibition of neutrophil adhesion, stimulated conditions",[1]; concentrations ≦10 μM,did not inhibit
same,inhibition of fMLP-induced neutrophil aggregation,[2]; concentrations of ≦10 μM,not active
same,activity in assay of neutrophil aggregation,[2]; concentrations up to 1 μM,no activity
same,inhibition of neutrophil aggregation,[2],neither 20-HETE nor 15-HETE inhibited
same,OFR Release (percent of inhibition from HETE untreated cells),[3],3.9 ± 13.4%
same,activity in assay of luminol chemiluminescence,[3]; concentrations up to 1 μM,no activity
same,agonist activity on human neutrophils,human neutrophils,no detectable agonist activity
same,Aggregation (percent of inhibition from HETE untreated cells),[7],8.1 ± 2.6%
"CCCC[C@@H](O)CCCCCCCCCCCCCCC(=O)O [5,6,8,9,11,12,14,15-octahydro-16(R)-HETE]",Aggregation (percent of inhibition from HETE untreated cells),[2],122.8 +/− 15.4%
"5,6,14,15-Dehydro-8,9,11,12-tetrahydro-16(R)-HETE",Aggregation (percent of inhibition from HETE untreated cells),[2],79.4 +/− 12.2%
C(1)-hydroxyl 16-HETE,Aggregation (percent of inhibition from HETE untreated cells),[2],84.6 +/− 11.4%
CCCCC[C@H](O)/C=C/C=C\C/C=C\C/C=C\CCCC(=O)O [15-HETE],inhibition of neutrophil aggregation,[2],neither 20-HETE nor 15-HETE inhibited
